22 compounds from patent US11655235B2, “Pyrrolidine and piperidine compounds” (YUHAN CORPORATION, priority 2019, dated 2023) can be followed below.

One assay addresses T1, Recombinant human FAP (Homo sapiens, UniProt Q12884).
T1 construct: purchased R&D systems
T1 sequence (Q12884 1-760): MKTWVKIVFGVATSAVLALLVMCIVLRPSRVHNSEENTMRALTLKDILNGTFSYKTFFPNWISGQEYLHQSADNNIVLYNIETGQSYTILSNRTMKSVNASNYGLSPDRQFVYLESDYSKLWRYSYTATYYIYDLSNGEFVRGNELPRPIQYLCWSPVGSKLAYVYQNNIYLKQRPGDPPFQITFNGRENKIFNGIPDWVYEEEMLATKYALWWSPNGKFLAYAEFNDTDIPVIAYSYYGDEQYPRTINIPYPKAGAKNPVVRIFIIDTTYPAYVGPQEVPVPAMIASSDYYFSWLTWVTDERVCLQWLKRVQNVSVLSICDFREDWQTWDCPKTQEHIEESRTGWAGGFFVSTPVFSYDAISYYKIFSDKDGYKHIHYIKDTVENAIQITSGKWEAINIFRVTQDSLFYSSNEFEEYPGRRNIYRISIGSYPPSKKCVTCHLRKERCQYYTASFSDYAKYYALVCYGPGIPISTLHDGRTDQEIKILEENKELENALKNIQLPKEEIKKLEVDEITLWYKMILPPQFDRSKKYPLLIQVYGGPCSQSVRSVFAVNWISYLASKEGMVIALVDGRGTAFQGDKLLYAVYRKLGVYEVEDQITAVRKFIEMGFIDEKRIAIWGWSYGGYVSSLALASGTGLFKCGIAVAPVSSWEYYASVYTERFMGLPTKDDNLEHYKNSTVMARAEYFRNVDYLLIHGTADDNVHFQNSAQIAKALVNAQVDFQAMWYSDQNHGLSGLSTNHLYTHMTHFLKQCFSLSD
In words: FAP inhibition, fluorogenic substrate Z-Gly-Pro-AMC. Conditions: for inhibition at 1 µM: read-out: hFAP inhibition % at 1 μM. Type of assay: biochemical. The method in brief: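 Recombinant human FAP, 10 ng per reaction, in 50 mM Tris pH 7.5 with 1 M NaCl and 1 mg/ml BSA at 25° C; substrate Z-Gly-Pro-AMC, ≤0.1% DMSO. AMC fluorescence read at ex 380/em 460 nm; % signal-rate decrease vs no-inhibitor control, 8-point curves fitted to a four-parameter logistic for IC50.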

In a further assay the target is DPP4 (Homo sapiens, UniProt P27487). The assay can be described thus: DPP4 inhibition, fluorogenic substrate H-Gly-Pro-AMC. Type of assay: biochemical. Also noted: purchased R&D Systems. Conditions: for IC50: recombinant human DPP4; for inhibition at 1 µM: read-out: hDPP4 inhibition % at 1 μM.
The mark [1] stands for this setting: recombinant human FAP, substrate Z-Gly-Pro-AMC.
The mark [2] stands for this setting: 25° C., Z-Gly-Pro-AMC substrate.

DPP4, sequence (P27487 whole entry): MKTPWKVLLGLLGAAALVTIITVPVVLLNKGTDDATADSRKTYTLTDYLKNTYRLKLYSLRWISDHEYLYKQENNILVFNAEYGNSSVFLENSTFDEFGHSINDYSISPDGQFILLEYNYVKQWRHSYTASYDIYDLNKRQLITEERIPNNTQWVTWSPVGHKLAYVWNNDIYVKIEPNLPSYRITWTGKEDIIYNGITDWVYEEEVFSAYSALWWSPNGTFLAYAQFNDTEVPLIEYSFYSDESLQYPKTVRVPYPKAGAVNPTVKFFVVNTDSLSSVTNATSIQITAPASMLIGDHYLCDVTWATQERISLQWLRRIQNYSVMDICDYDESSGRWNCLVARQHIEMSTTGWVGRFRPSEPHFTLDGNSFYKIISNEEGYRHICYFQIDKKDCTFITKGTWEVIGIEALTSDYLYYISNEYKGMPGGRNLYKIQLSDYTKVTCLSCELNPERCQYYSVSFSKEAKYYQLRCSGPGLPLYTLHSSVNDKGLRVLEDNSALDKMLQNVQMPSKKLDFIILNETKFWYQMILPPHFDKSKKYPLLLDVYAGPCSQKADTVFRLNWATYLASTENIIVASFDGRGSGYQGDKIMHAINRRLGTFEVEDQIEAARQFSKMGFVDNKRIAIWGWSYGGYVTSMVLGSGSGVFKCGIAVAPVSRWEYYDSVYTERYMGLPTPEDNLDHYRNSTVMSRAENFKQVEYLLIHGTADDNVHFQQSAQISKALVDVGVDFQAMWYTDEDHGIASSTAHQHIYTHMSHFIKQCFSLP

Take `CN(c1cncc2ccoc12)C1CCN(CC(=O)N2CCC[C@H]2C#N)CC1` [Example 312, (2S)-1-[2-[4-[furo[3,2-c]pyridin-7-yl(methyl)amino]-1-piperidyl]acetyl]pyrrolidine-2-carbonitrile]: the IC50 on Recombinant human FAP (setting [1]) is 31.8 nM; on DPP4, greater than 10000 nM.
As for `N#C[C@@H]1CCCN1C(=O)CN1CC[C@H](Oc2ccnc3c(F)c(F)ccc23)C1` [Example 85, (S)-1-(2-((S)-3-((7,8-difluoroquinolin-4-yl)oxy)pyrrolidin-1-yl)acetyl)pyrrolidine-2-carbonitrile], the IC50 at Recombinant human FAP (setting [2]) stood at 19.9 nM. The inhibition at 1 µM on DPP4 came out at 5.9%.
Consider `N#C[C@@H]1CCCN1C(=O)CN1CC[C@H](Nc2cccc3ccoc23)C1` [Example 22, (S)-1-(2-((S)-3-(benzofuran-7-ylamino)pyrrolidin-1-yl)acetyl)pyrrolidine-2-carbonitrile], for which the IC50 on Recombinant human FAP (setting [2]) was found to be 9.03 nM. For the same compound, the inhibition at 1 µM on DPP4 came out at 4.2%.
As for `N#C[C@@H]1CCCN1C(=O)CN1CC[C@@H](Nc2cccc(-c3ccccc3)c2)C1` [Example 18, (S)-1-(2-((R)-3-([1,1′-biphenyl]-3-ylamino)pyrrolidin-1-yl)acetyl)pyrrolidine-2-carbonitrile], the IC50 on Recombinant human FAP (setting [2]) was found to be 25.3 nM. Further, the “hDPP4 inhibition % at 1 μM” value on DPP4 was “No inhibition**”.
As for `N#C[C@@H]1CCCN1C(=O)CN1CC[C@H](Oc2ccccc2C(=O)Nc2ccccc2)C1` [Example 99, 2-(((S)-1-(2-((S)-2-cyanopyrrolidin-1-yl)-2-oxoethyl)pyrrolidin-3-yl)oxy)-N-phenylbenzamide], the figures for the inhibition at 1 µM on Recombinant human FAP and on DPP4 were 18.2% and 10.9%, respectively.
On to `CN(c1cccc2ccncc12)C1CCN(CC(=O)N2C[C@@H](F)C[C@H]2C#N)CC1` [Example 320, (2S,4S)-4-fluoro-1-[2-[4-[8-isoquinolyl(methyl)amino]-1-piperidyl]acetyl]pyrrolidine-2-carbonitrile], for which the 50% inhibitory concentration (IC50) on Recombinant human FAP (setting [1]) worked out at 46.2 nM; on DPP4, 410 nM.
For `CN(c1cccc2ncccc12)C1CCN(CC(=O)N2CCC[C@H]2C#N)CC1` [Example 309, (2S)-1-[2-[4-[methyl(5-quinolyl)amino]-1-piperidyl]acetyl]pyrrolidine-2-carbonitrile], in that order: 68.3 nM and greater than 10000 nM.
`N#C[C@@H]1CCCN1C(=O)CN1CC[C@H](Oc2cccc3ccccc23)C1` [Example 62, (S)-1-(2-((S)-3-(naphthalen-1-yloxy)pyrrolidin-1-yl)acetyl)pyrrolidine-2-carbonitrile]: the IC50 on Recombinant human FAP (setting [2]) was 75.1 nM. In addition, the “hDPP4 inhibition % at 1 μM” value on DPP4 was “No inhibition**”.
For the compound `N#C[C@@H]1CCCN1C(=O)CN1CC[C@H](C(=O)Nc2ccnc3ccccc23)C1` [Example 4, (S)-1-(2-((S)-2-cyanopyrrolidin-1-yl)-2-oxoethyl)-N-(quinolin-4-yl)pyrrolidine-3-carboxamide], the IC50 at Recombinant human FAP (setting [2]) is 99.2 nM. Also, the inhibition at 1 µM at DPP4 came to 15.1%.
`CC(=O)N1CCN(c2ccc(O[C@H]3CCN(CC(=O)N4CCC[C@H]4C#N)C3)cc2)CC1` [Example 98, (S)-1-(2-((S)-3-(4-(4-acetylpiperazin-1-yl)phenoxy)pyrrolidin-1-yl)acetyl)pyrrolidine-2-carbonitrile]: the inhibition at 1 µM on Recombinant human FAP was 63.2%; at DPP4, 9.1%.
For `N#C[C@@H]1C[C@H](F)CN1C(=O)CN1CCC(Nc2ccc3cnccc3c2)CC1` [Example 341, (2S,4S)-4-fluoro-1-[2-[4-(6-isoquinolylamino)-1-piperidyl]acetyl]pyrrolidine-2-carbonitrile], the values for the IC50 at Recombinant human FAP (setting [1]) and on DPP4 were 22.7 nM and greater than 10000 nM, respectively.
`Cc1oc2ccccc2c1C(=O)N[C@H]1CCN(CC(=O)N2CCC[C@H]2C#N)C1` [Example 42, N—((S)-1-(2-((S)-2-cyanopyrrolidin-1-yl)-2-oxoethyl)pyrrolidin-3-yl)-2-methylbenzofuran-3-carboxamide]: the values for the inhibition at 1 µM at Recombinant human FAP and at DPP4 were 84.6% and 1.4%, respectively.
Regarding `N#C[C@@H]1CCCN1C(=O)CN1CC[C@H](NC(=O)c2ccccc2-c2ccccc2)C1` [Example 39, N—((S)-1-(2-((S)-2-cyanopyrrolidin-1-yl)-2-oxoethyl)pyrrolidin-3-yl)-[1,1′-biphenyl]-2-carboxamide], the inhibition at 1 µM came to 68.1% at Recombinant human FAP and 0.4% on DPP4.
As to `N#C[C@@H]1C[C@@H]2C[C@@H]2N1C(=O)CN1CC[C@H](Nc2cncc3ccoc23)C1` [Example 26, (1S,3S,5S)-2-(2-((S)-3-(furo[3,2-c]pyridin-7-ylamino)pyrrolidin-1-yl)acetyl)-2-azabicyclo[3.1.0]hexane-3-carbonitrile], the inhibition at 1 µM on Recombinant human FAP came to 93.7%; at DPP4, 0.4%.
Consider `N#C[C@@H]1CCCN1C(=O)CN1CC[C@H](Oc2cc3ccccc3cn2)C1` [Example 69, (S)-1-(2-((S)-3-(isoquinolin-3-yloxy)pyrrolidin-1-yl)acetyl)pyrrolidine-2-carbonitrile], for which the IC50 on Recombinant human FAP (setting [2]) was 64.3 nM. In addition, at DPP4, the inhibition at 1 µM was 8%.
In the case of `COC(=O)C1Cc2ccc(O[C@H]3CCN(CC(=O)N4CCC[C@H]4C#N)C3)cc2O1` (stereo partly drawn) [Example 86, Methyl 6-(((S)-1-(2-((S)-2-cyanopyrrolidin-1-yl)-2-oxoethyl)pyrrolidin-3-yl)oxy)-2,3-dihydrobenzofuran-2-carboxylate], the values for the inhibition at 1 µM at Recombinant human FAP and at DPP4 were 70.7% and 6.8%, respectively.
With `N#C[C@@H]1CCCN1C(=O)CN1CC[C@H](NC(=O)c2ccc3occc3c2)C1` [Example 56, N—((S)-1-(2-((S)-2-cyanopyrrolidin-1-yl)-2-oxoethyl)pyrrolidin-3-yl)benzofuran-5-carboxamide], the IC50 on Recombinant human FAP (setting [2]) came to 45.2 nM. Moreover, on DPP4, the inhibition at 1 µM is 2.4%.
Regarding `N#C[C@@H]1CCCN1C(=O)CN1CC[C@H](NC(=O)c2nccc3ccccc23)C1` [Example 35, N—((S)-1-(2-((S)-2-cyanopyrrolidin-1-yl)-2-oxoethyl)pyrrolidin-3-yl)isoquinoline-1-carboxamide], on Recombinant human FAP, the inhibition at 1 µM amounted to 76.1%. In addition, at DPP4, the “hDPP4 inhibition % at 1 μM” value is reported as “No inhibition**”.
Turning to `N#C[C@@H]1CCCN1C(=O)CN1CC[C@H](Oc2cccc3cc4ccccc4nc23)C1` [Example 96, (S)-1-(2-((S)-3-(acridin-4-yloxy)pyrrolidin-1-yl)acetyl)pyrrolidine-2-carbonitrile], the IC50 at Recombinant human FAP (setting [2]) amounted to 270 nM. Moreover, the inhibition at 1 µM on DPP4 is 11.5%.
Consider `N#C[C@@H]1CCCN1C(=O)CN1CC[C@H](Oc2cccc(C(=O)c3ccccc3)c2)C1` [Example 91, (S)-1-(2-((S)-3-(3-benzoylphenoxy)pyrrolidin-1-yl)acetyl)pyrrolidine-2-carbonitrile], for which the inhibition at 1 µM at Recombinant human FAP was determined as 59.2%; on DPP4 it was 9.1%.
As to `N#C[C@@H]1C[C@H](F)CN1C(=O)CN1CCC(Nc2ccc(OCc3ccccc3)c3ncccc23)CC1` [Example 332, (2S,4S)-1-[2-[4-[(8-benzyloxy-5-quinolyl)amino]-1-piperidyl]acetyl]-4-fluoro-pyrrolidine-2-carbonitrile], the IC50 on Recombinant human FAP (setting [1]) is 5.5 nM; at DPP4, 6200 nM.
As for `N#C[C@@H]1CCCN1C(=O)CN1CC[C@@H](C(=O)Nc2ccnc3ccccc23)C1` [Example 2, (R)-1-(2-((S)-2-cyanopyrrolidin-1-yl)-2-oxoethyl)-N-(quinolin-4-yl)pyrrolidine-3-carboxamide], the IC50 on Recombinant human FAP (setting [2]) stood at 84.5 nM. In addition, the inhibition at 1 µM at DPP4 is 14.6%.
